The first test relates to MM.1S cells. Kind of test: Proliferation inhibition (IC50) in MM.1S cells, cell viability assay. Particulars: Homo sapiens, MM1.S, 72 h, read-out: IC50 (nM), proliferation inhibitory activity of MM.1S cells (half inhibitory concentration).
For `CN(C)CCCCCSc1cccc2c1CN(C1CCC(=O)NC1=O)C2=O` (stereo not drawn) [SIAIS1216089, 3-(4-((5-(dimethylamino)pentyl)thio)-1-oxoisoindolin-2-yl)piperidine-2,6-dione], the IC50 is 2.83 ± 0.76 nM.
Still for that read-out and setting: under `CC(=O)NCCCCCSc1cccc2c1CN(C1CCC(=O)NC1=O)C2=O` (stereo not drawn) [SIAIS1216095, N-(5-((2-(2,6-dioxopiperidin-3-yl)-1-oxoisoindolin-4-yl)thio)pentyl)acetamide] stands 1.53 ± 0.4 nM.
The same measure, in the same setting: under `O=C1CCC(N2Cc3c(SCCCCCCCCSc4cccc5c4CN(C4CCC(=O)NC4=O)C5=O)cccc3C2=O)C(=O)N1` (stereo not drawn) [SIAIS1216137B, 3,3′-((octane-1,8-diylbis(sulfanediyl))bis(1-oxoisoindoline-4,2-diyl))bis(piperidine-2,6-dione)] stands 1.41 nM; under `CCN(CC)CCCCCSc1cccc2c1CN(C1CCC(=O)NC1=O)C2=O` (stereo not drawn) [SIAIS1216139, 3-(4-((5-(diethylamino)pentyl)thio)-1-oxoisoindolin-2-yl)piperidine-2,6-dione], 4.06 ± 0.64 nM; under `CNCCCCCSc1cccc2c1CN(C1CCC(=O)NC1=O)C2=O` (stereo not drawn) [SIAIS1216141, 3-(4-((5-(methylamino)pentyl)thio)-1-oxoisoindolin-2-yl)piperidine-2,6-dione], 12.6 ± 3.47 nM.
The same measure, in the same setting: under `O=C1CCC(N2Cc3c(SCCCCCCCCN4CCOCC4)cccc3C2=O)C(=O)N1` (stereo not drawn) [SIAIS1216143, 3-(4-((8-morpholinooctyl)thio)-1-oxoisoindolin-2-yl)piperidine-2,6-dione] stands 0.17 ± 0.04 nM.
Regarding `O=C1CCC(N2Cc3c(SCCCCCCCCN4CCNCC4)cccc3C2=O)C(=O)N1` (stereo not drawn) [SIAIS1216145, 3-(1-oxo-4-((8-(piperazin-1-yl)octyl)thio)isoindolin-2-yl)piperidine-2,6-dione], the IC50 amounted to 3.86 ± 0.87 nM.
Same read-out and setting: under `CCN(CC)CCCCCCCCSc1cccc2c1CN(C1CCC(=O)NC1=O)C2=O` (stereo not drawn) [SIAIS1216147, 3-(4-((8-(diethylamino)octyl)thio)-1-oxoisoindolin-2-yl)piperidine-2,6-dione] stands 0.19 ± 0.04 nM; under `CN(C)CCCCCCCCSc1cccc2c1CN(C1CCC(=O)NC1=O)C2=O` (stereo not drawn) [SIAIS1216149, 3-(4-((8-(dimethylamino)octyl)thio)-1-oxoisoindolin-2-yl)piperidine-2,6-dione], 0.32 ± 0.15 nM.
Consider `CNCCCCCCCCSc1cccc2c1CN(C1CCC(=O)NC1=O)C2=O` (stereo not drawn) [SIAIS1216151, 3-(4-((8-(methylamino)octyl)thio)-1-oxoisoindolin-2-yl)piperidine-2,6-dione], for which the IC50 is 0.33 ± 0.15 nM.
For the compound `O=C1CCC(N2Cc3c(SCCCO)cccc3C2=O)C(=O)N1` (stereo not drawn) [SIAIS1216189, 3-(4-((3-hydroxypropyl)thio)-1-oxoisoindolin-2-yl)piperidine-2,6-dione], the IC50 was 2.25 nM.
Regarding `CN(C)CCOCCOCCSc1cccc2c1CN(C1CCC(=O)NC1=O)C2=O` (stereo not drawn) [SIAIS1216195, 3-(4-((2-(2-(2-(dimethylamino)ethoxy)ethoxy)ethyl)thio)-1-oxoisoindolin-2-yl)piperidine-2,6-dione], the IC50 stood at 4.96 ± 0.54 nM.
The same measure, in the same setting: under `O=C1CCC(N2Cc3c(SCCCCCCCCN4CCCCC4)cccc3C2=O)C(=O)N1` (stereo not drawn) [SIAIS1220009, 3-(1-oxo-4-((8-(piperidin-1-yl)octyl)thio)isoindolin-2-yl)piperidine-2,6-dione] stands 0.12 ± 0.03 nM.
`CN1CCN(CCCCCCCCSc2cccc3c2CN(C2CCC(=O)NC2=O)C3=O)CC1` (stereo not drawn) [SIAIS1220011, 3-(4-((8-(4-methylpiperazin-1-yl)octyl)thio)-1-oxoisoindolin-2-yl)piperidine-2,6-dione]: the IC50 is 0.57 ± 0.21 nM.
Same read-out and setting: under `O=C1CCC(N2Cc3c(SCCCCCCCCN4CCCNCC4)cccc3C2=O)C(=O)N1` (stereo not drawn) [SIAIS1220017, 3-(4-((8-(1,4-diazepan-1-yl)octyl)thio)-1-oxoisoindolin-2-yl)piperidine-2,6-dione] stands 2.77 nM.
Same read-out and setting: under `O=C1CCC(N2Cc3c(SCCCCCCCCN4CCC(N5CCNCC5)CC4)cccc3C2=O)C(=O)N1` (stereo not drawn) [SIAIS1220019, 3-(1-oxo-4-((8-(4-(piperazin-1-yl)piperidin-1-yl)octyl)thio)isoindolin-2-yl)piperidine-2,6-dione] stands 2.08 nM; under `CC(C)N(CCCCCCCCSc1cccc2c1CN(C1CCC(=O)NC1=O)C2=O)C(C)C` (stereo not drawn) [SIAIS1220021, 3-(4-((8-(diisopropylamino)octyl)thio)-1-oxoisoindolin-2-yl)piperidine-2,6-dione], 0.16 ± 0.05 nM; under `O=C1CCC(N2Cc3c(SCCCCCCCCCCN4CCOCC4)cccc3C2=O)C(=O)N1` (stereo not drawn) [SIAIS1220023, 3-(4-((10-morpholinodecyl)thio)-1-oxoisoindolin-2-yl)piperidine-2,6-dione], 0.46 ± 0.19 nM.
On the same count and under the same terms, under `CCN(CC)CCCCCCCCCCSc1cccc2c1CN(C1CCC(=O)NC1=O)C2=O` (stereo not drawn) [SIAIS1220025, 3-(4-((10-(diethylamino)decyl)thio)-1-oxoisoindolin-2-yl)piperidine-2,6-dione] stands 0.49 ± 0.05 nM; under `O=C1CCC(N2Cc3c(SCCCCCCN4CCOCC4)cccc3C2=O)C(=O)N1` (stereo not drawn) [SIAIS1220027, 3-(4-((6-morpholinohexyl)thio)-1-oxoisoindolin-2-yl)piperidine-2,6-dione], 0.7 nM.
Take `CCN(CC)CCCCCCSc1cccc2c1CN(C1CCC(=O)NC1=O)C2=O` (stereo not drawn) [SIAIS1220029, 3-(4-((6-(diethylamino)hexyl)thio)-1-oxoisoindolin-2-yl)piperidine-2,6-dione]: the IC50 worked out at 1.13 nM.
Still for that read-out and setting: under `O=C1CCC(N2Cc3c(SCCCCCCCN4CCOCC4)cccc3C2=O)C(=O)N1` (stereo not drawn) [SIAIS1220031, 3-(4-((7-morpholinoheptyl)thio)-1-oxoisoindolin-2-yl)piperidine-2,6-dione] stands 0.22 ± 0.04 nM; under `CCN(CC)CCCCCCCSc1cccc2c1CN(C1CCC(=O)NC1=O)C2=O` (stereo not drawn) [SIAIS1220033, 3-(4-((7-(diethylamino)heptyl)thio)-1-oxoisoindolin-2-yl)piperidine-2,6-dione], 0.23 ± 0.08 nM; under `CCN(CC)CCNCCCCCSc1cccc2c1CN(C1CCC(=O)NC1=O)C2=O` (stereo not drawn) [SIAIS1220035, 3-(4-((5-((2-(diethylamino)ethyl)amino)pentyl)thio)-1-oxoisoindolin-2-yl)piperidine-2,6-dione], 4.13 ± 1.43 nM.
The same measure, in the same setting: under `CCN(CC)CCNCCCCCCCCSc1cccc2c1CN(C1CCC(=O)NC1=O)C2=O` (stereo not drawn) [SIAIS1220037, 3-(4-((8-((2-(diethylamino)ethyl)amino)octyl)thio)-1-oxoisoindolin-2-yl)piperidine-2,6-dione] stands 0.83 ± 0.39 nM; under `O=C1CCC(N2Cc3c(SCCCCCCCCCCCN4CCOCC4)cccc3C2=O)C(=O)N1` (stereo not drawn) [SIAIS1220045, 3-(4-((11-morpholinoundecyl)thio)-1-oxoisoindolin-2-yl)piperidine-2,6-dione], 0.36 ± 0.13 nM; under `CCN(CC)CCCCCCCCCCCSc1cccc2c1CN(C1CCC(=O)NC1=O)C2=O` (stereo not drawn) [SIAIS1220047, 3-(4-((11-(diethylamino)undecyl)thio)-1-oxoisoindolin-2-yl)piperidine-2,6-dione], 0.11 ± 0.01 nM.
On the same count and under the same terms, as for `CN1CCN(C2CCN(CCCCCCCCSc3cccc4c3CN(C3CCC(=O)NC3=O)C4=O)CC2)CC1` (stereo not drawn) [SIAIS1220049, 3-(4-((8-(4-(4-methylpiperazin-1-yl)piperidin-1-yl)octyl)thio)-1-oxoisoindolin-2-yl)piperidine-2,6-dione], the figure is 0.26 nM.
Take `CN1CCCN(CCCCCCCCSc2cccc3c2CN(C2CCC(=O)NC2=O)C3=O)CC1` (stereo not drawn) [SIAIS1220051, 3-(4-((8-(4-methyl-1,4-diazepan-1-yl)octyl)thio)-1-oxoisoindolin-2-yl)piperidine-2,6-dione]: the IC50 came to 0.75 nM.
Regarding `O=C1CCC(N2Cc3c(SCCCCCCCCN4CCC(F)(F)CC4)cccc3C2=O)C(=O)N1` (stereo not drawn) [SIAIS1220055, 3-(4-((8-(4,4-difluoropiperidin-1-yl)octyl)thio)-1-oxoisoindolin-2-yl)piperidine-2,6-dione], the IC50 was determined as 0.26 nM.
Still for that read-out and setting: as for `CC1CN(CCCCCCCCSc2cccc3c2CN(C2CCC(=O)NC2=O)C3=O)CC(C)N1` (stereo not drawn) [SIAIS1220057, 3-(4-((8-(3,5-dimethylpiperazin-1-yl)octyl)thio)-1-oxoisoindolin-2-yl)piperidine-2,6-dione], the figure is 0.77 nM; as for `O=C1CCC(N2Cc3c(SCCCCCCCCCSc4cccc5c4CN(C4CCC(=O)NC4=O)C5=O)cccc3C2=O)C(=O)N1` (stereo not drawn) [SIAIS1220059B, 3,3′-((nonane-1,9-diylbis(sulfanediyl))bis(1-oxoisoindoline-4,2-diyl))bis(piperidine-2,6-dione)], 1.7 nM.
The same measure, in the same setting: as for `O=C1CCC(N2Cc3c(SCCCCCCCCN4CCN(CCCCCCCCSc5cccc6c5CN(C5CCC(=O)NC5=O)C6=O)CC4)cccc3C2=O)C(=O)N1` (stereo not drawn) [SIAIS1220061, 3,3′-(((piperazine-1,4-diylbis(octane-8,1-diyl))bis(sulfanediyl))bis(1-oxoisoindoline-4,2-diyl))bis(piperidine-2,6-dione)], the figure is 0.49 nM.
Still for that read-out and setting: under `O=C1CCC(N2Cc3c(SCCCCCCCCCN4CCOCC4)cccc3C2=O)C(=O)N1` (stereo not drawn) [SIAIS1220065, 3-(4-((9-morpholinononyl)thio)-1-oxoisoindolin-2-yl)piperidine-2,6-dione] stands 0.49 nM.
As for `CCN(CC)CCCCCCCCCSc1cccc2c1CN(C1CCC(=O)NC1=O)C2=O` (stereo not drawn) [SIAIS1220067, 3-(4-((9-(diethylamino)nonyl)thio)-1-oxoisoindolin-2-yl)piperidine-2,6-dione], the IC50 amounted to 0.25 nM.
The same measure, in the same setting: as for `O=C1CCC(N2Cc3c(SCCCCCO)cccc3C2=O)C(=O)N1` (stereo not drawn) [SIAIS1220069, 3-(4-((5-hydroxypentyl)thio)-1-oxoisoindolin-2-yl)piperidine-2,6-dione], the figure is 3.21 nM; as for `O=C1CCC(N2Cc3c(SCCCCCCCCNC45CC6CC(CC(C6)C4)C5)cccc3C2=O)C(=O)N1` (stereo not drawn) [SIAIS1220087, 3-(4-((8-((adamantan-1-yl)amino)octyl)thio)-1-oxoisoindolin-2-yl)piperidine-2,6-dione], 0.12 nM; as for `O=C1CCC(N2Cc3c(SCCCCCCCCNC4C5CC6CC(C5)CC4C6)cccc3C2=O)C(=O)N1` (stereo not drawn) [SIAIS1220089, 3-(4-((8-((adamantan-2-yl)amino)octyl)thio)-1-oxoisoindolin-2-yl)piperidine-2,6-dione], 0.07 nM.

Staying with this test, now noted: Homo sapiens, MM1.S, 72 h, read-out: IC50 against MM.1S cells (proliferation inhibition).
With `O=C1CCC(N2Cc3c(SCCCCCCCCN4CCCCC4)cccc3C2=O)C(=O)N1` (stereo not drawn) [SIAIS1220009, 3-(1-oxo-4-((8-(piperidin-1-yl)octyl)thio)isoindolin-2-yl)piperidine-2,6-dione], the IC50 is ~0.12 nM.

For the origin of these results see patent US12582641B2, “Sulfur-containing compound based on glutarimide skeleton and application thereof” (SHANGHAITECH UNIVERSITY, priority 2019, dated 2026).
